From patent US20050026911A1, “Benzotriazapinone salts and methods for using same” (priority 2003, published 2005) come the findings set out here.

In this experiment the target is T1, gastrin (CCK2) receptors (Rattus norvegicus, UniProt P30553).
T1 construct: The stomach was excised and flushed with ca. 1 ml of unbuffered physiological saline solution; from tissue; host or cells: isolated whole stomach of immature rats (ca. 21 days old)
T1 sequence (P30553 1-452): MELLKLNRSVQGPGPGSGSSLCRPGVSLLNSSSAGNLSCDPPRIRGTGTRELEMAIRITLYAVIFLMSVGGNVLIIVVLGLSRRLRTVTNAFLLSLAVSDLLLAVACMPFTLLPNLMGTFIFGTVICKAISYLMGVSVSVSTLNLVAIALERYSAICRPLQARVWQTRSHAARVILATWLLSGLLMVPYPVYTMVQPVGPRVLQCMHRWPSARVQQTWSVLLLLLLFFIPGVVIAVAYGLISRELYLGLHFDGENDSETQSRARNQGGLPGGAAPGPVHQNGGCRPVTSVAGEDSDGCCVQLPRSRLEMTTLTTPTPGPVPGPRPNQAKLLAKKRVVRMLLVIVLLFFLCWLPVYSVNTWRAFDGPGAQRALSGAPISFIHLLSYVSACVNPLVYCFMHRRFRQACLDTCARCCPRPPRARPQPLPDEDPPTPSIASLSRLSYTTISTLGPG
As to the kind of experiment: gastrin (CCK2) antagonist activity in an immature rat stomach assay. Conditions: pentagastrin dose-response curves, acid secretion, read-out: pKB rat stomach (converted). How it is done:
The compounds of the examples were tested for gastrin (CCK2) antagonist activity in an immature rat stomach assay. The procedure was as follows:
The oesophagus of immature rats (33-50 g, ca. 21 days old) was ligated at the level of the cardiac sphincter and the duodenal sphincter was cannulated. The stomach was excised and flushed with ca. 1 ml of unbuffered physiological saline solution. The fundus was punctured and cannulated. A further 4-5 ml of unbuffered solution was flushed through the stomach to ensure the preparation was not leaking. […] The stomach was continuously perfused at a rate of 1 ml min^−1 with unbuffered solution gassed with 100% O2 with the perfusate passing over an internally referenced pH-electrode fixed 12 cm above the stomach.
After 120 min of stabilisation the drugs were added directly to the serosal solution in the organ bath and after a further 60 min cumulative pentagastrin dose-response curves were started.
`CC1(C(=O)CN2C(=O)N(CC(=O)Nc3cccc(-c4nc(=O)o[nH]4)c3)N=C(C3CCCCC3)c3ccccc32)CCCC1` [Example 87]: the Kb was 3.16 nM.
`CC1(C(=O)CN2C(=O)N(CC(=O)Nc3cccc(C(=O)O)c3)N=C(C3CCCCC3)c3ccccc32)CCCC1` [Example 88, 3-(2-{5-Cyclohexyl-1-[2-(1-methyl-cyclopentyl)-2-oxo-ethyl]-2-oxo-1,2-dihydro-3H-1,3,4-benzotriazepin-3-yl}-acetylamino)-benzoic acid]: the Kb was 11.7 nM.
Consider `CC(C)(C)C(=O)CN1C(=O)N(CC(=O)Nc2cccc(-n3ccnc3)c2)N=C(C2CCCCC2)c2ccccc21` [Example 89, 2-[5-Cyclohexyl-1-(3,3-dimethyl-2-oxo-butyl)-2-oxo-1,2-dihydro-3H-1,3,4-benzotriazepin-3-yl]-N-[3-(1H-imidazol-1-yl)-phenyl]-acetamide], for which the Kb was 871 nM.
As to `Cc1cc(NC(=O)CN2N=C(C3CCCCC3)c3ccccc3N(CC(=O)C(C)(C)C)C2=O)cc(C(=O)O)c1` [Example 91, 3-{2-[5-Cyclohexyl-1-(3,3-dimethyl-2-oxo-butyl)-2-oxo-1,2-dihydro-3H-1,3,4-benzotriazepin-3-yl]-acetylamino}-5-methyl-benzoic acid], the Kb was 40.7 nM.
Then `CC(C)(C)C(=O)CN1C(=O)N(CC(=O)Nc2ccc3ncn(CC(=O)O)c3c2)N=C(C2CCCCC2)c2ccccc21` [Example 94, (6-{2-[5-Cyclohexyl-1-(3,3-dimethyl-2-oxo-butyl)-2-oxo-1,2-dihydro-3H-1,3,4-benzotriazepin-3-yl]-acetylamino)-benzimidazol-1-yl)-acetic acid], with 155 nM.
Regarding `CC(C)(C)OC(=O)CN1C(=O)N(CC(=O)Nc2cccc(C(=O)O)c2)N=C(C2CCCCC2)c2ccccc21` [Example 95, 3-[2-(1-tert-Butoxycarbonylmethyl-5-cyclohexyl-2-oxo-1,2-dihydro-3H-1,3,4-benzotriazepin-3-yl)-acetylamino]-benzoic acid], the Kb is 3.98 nM.
The same measure for `CN(CC(=O)O)c1cccc(NC(=O)CN2N=C(C3CCCCC3)c3ccccc3N(CC(=O)C(C)(C)C)C2=O)c1` [Example 96, [(3-{2-[5-Cyclohexyl-1-(3,3-dimethyl-2-oxo-butyl)-2-oxo-1,2-dihydro-3H-1,3,4-benzotriazepin-3-yl]-acetylamino}-phenyl)-methyl-amino]-acetic acid]: 7.24 nM; for `CC(C)(C)C(=O)CN1C(=O)N(CC(=O)Nc2ccc3cnn(CC(=O)O)c3c2)N=C(C2CCCCC2)c2ccccc21` [Example 99, (6-{2-[5-Cyclohexyl-1-(3,3-dimethyl-2-oxo-butyl)-2-oxo-1,2-dihydro-3H-1,3,4-benzotriazepin-3-yl]-acetylamino}-indazol-1-yl)-acetic acid]: 14.1 nM; for `O=C(O)CSc1cccc(NC(=O)CN2N=C(C3CCCCC3)c3ccccc3N(CC(=O)C3CCCCC3)C2=O)c1` [Example 100, (3-{2-[5-Cyclohexyl-1-(2-cyclohexyl-2-oxo-ethyl)-2-oxo-1,2-dihydro-3H-1,3,4-benzotriazepin-3-yl]-acetylamino}-phenylsulfanyl)-acetic acid]: 0.575 nM.
As to `CNc1ccccc1NC(=O)CN1N=C(C2CCCCC2)c2ccccc2N(CC(=O)C(C)(C)C)C1=O` [Example 101, 2-[5-Cyclohexyl-1-(3,3-dimethyl-2-oxo-butyl)-2-oxo-1,2-dihydro-3H-1,3,4-benzotriazepin-3-yl]-N-(2-methylamino-phenyl)-acetamide], the Kb was 129 nM.
Then `CC1CCC(C2=NN(CC(=O)Nc3cccc(C(=O)O)c3)C(=O)N(CC(=O)C(C)(C)C)c3ccccc32)CC1` (stereo not drawn) [Example 102, 3-{2-[1-(3,3-Dimethyl-2-oxo-butyl)-5-(4-methyl-cyclohexyl)-2-oxo-1,2-dihydro-3H-1,3,4-benzotriazepin-3-yl]-acetylamino}-benzoic acid], with 0.776 nM; and `CC1CCC(C2=NN(CC(=O)Nc3cccc(CC(=O)O)c3)C(=O)N(CC(=O)C(C)(C)C)c3ccccc32)CC1` (stereo not drawn) [Example 103, (3-{2-[1-(3,3-Dimethyl-2-oxo-butyl)-5-(4-methyl-cyclohexyl)-2-oxo-1,2-dihydro-3H-1,3,4-benzotriazepin-3-yl]-acetylamino}-phenyl)-acetic acid], with 3.98 nM.
The same measure for `CNc1cc(NC)cc(NC(=O)CN2N=C(C3CCCCC3)c3ccccc3N(CC(=O)C(C)(C)C)C2=O)c1` [Example 104, N-(3,5-Bis-methylamino-phenyl)-2-[5-cyclohexyl-1-(3,3-dimethyl-2-oxo-butyl)-2-oxo-1,2-dihydro-3H-1,3,4-benzotriazepin-3-yl]-acetamide]: 44.7 nM.
Then `CNc1cc(NC(=O)CN2N=C(C3CCCCC3)c3ccccc3N(CC(=O)C(C)(C)C)C2=O)ccc1OC` [Example 105, 2-[5-Cyclohexyl-1-(3,3-dimethyl-2-oxo-butyl)-2-oxo-1,2-dihydro-3H-1,3,4-benzotriazepin-3-yl]-N-(4-methoxy-3-methylamino-phenyl)-acetamide], with 27.5 nM; and `CC(C)(C)C(=O)CN1C(=O)N(CC(=O)Nc2cccc(CO)n2)N=C(C2CCCCC2)c2ccccc21` [Example 106, 2-[5-Cyclohexyl-1-(3,3-dimethyl-2-oxo-butyl)-2-oxo-1,2-dihydro-3H-1,3,4-benzotriazepin-3-yl]-N-(6-hydroxymethyl-pyridin-2-yl)-acetamide], with 129 nM.
For the compound `Cc1nc(-c2cccc(NC(=O)CN3N=C(C4CCCCC4)c4ccccc4N(CC(=O)C(C)(C)C)C3=O)c2)cs1` [Example 107], the Kb is 3.31 nM.
Then `CC(C)(C)C(=O)CN1C(=O)N(CC(=O)Nc2cccc(-c3csc(C(=O)O)n3)c2)N=C(C2CCCCC2)c2ccccc21` [Example 108, 4-(3-{2-[5-Cyclohexyl-1-(3,3-dimethyl-2-oxo-butyl)-2-oxo-1,2-dihydro-3H-1,3,4-benzotriazepin-3-yl]-acetylamino}-phenyl)-thiazole-2-carboxylic acid], with 37.2 nM; and `CC(C)(CO)C(=O)CN1C(=O)N(CC(=O)Nc2cccc(CC(=O)O)c2)N=C(C2CCCCC2)c2ccccc21` [Example 110, (3-{2-[5-Cyclohexyl-1-(4-hydroxy-3,3-dimethyl-2-oxo-butyl)-2-oxo-1,2-dihydro-3H-1,3,4-benzotriazepin-3-yl]-acetylamino}-phenyl)-acetic acid], with 93.3 nM; and `O=C(CN1N=C(C2CCCCC2)c2ccccc2N(CC(=O)C2CCCCC2)C1=O)Nc1cccc(-c2nc(=O)o[nH]2)c1` [Example 111, 2-[5-Cyclohexyl-1-(2-cyclohexyl-2-oxo-ethyl)-2-oxo-1,2-dihydro-3H-1,3,4-benzotriazepin-3-yl]-N-[3-(5-oxo-2,5-dihydro-[1,2,4]oxadiazol-3-yl)-phenyl]-acetamide], with 2.19 nM.
As for `Cc1ccc2c(c1)N(CC(=O)C(C)(C)C)C(=O)N(CC(=O)Nc1cccc(C(=O)O)c1)N=C2C1CCCCC1` [Example 112, 3-{2-[5-Cyclohexyl-1-(3,3-dimethyl-2-oxo-butyl)-8-methyl-2-oxo-1,2-dihydro-3H-1,3,4-benzotriazepin-3-yl]-acetylamino}-benzoic acid], the Kb is 40.7 nM.
Regarding `CC(C)(C)C(=O)CN1C(=O)N(CC(=O)Nc2cccc(C(=O)O)c2)N=C(C2CCCCC2)c2c(F)cccc21` [Example 113, 3-{2-[5-Cyclohexyl-1-(3,3-dimethyl-2-oxo-butyl)-6-fluoro-2-oxo-1,2-dihydro-3H-1,3,4-benzotriazepin-3-yl]-acetylamino}-benzoic acid], the Kb was 6.03 nM.
